# Measurements published in patent US6867207B2, “IL-5 inhibiting 6-azauracil derivatives” (Janssen Pharmaceutica N.V., priority 1997, dated 2005).
# System: IL-5 production
# Assay: In vitro inhibition of IL-5 production in human blood (phytohemagglutinin-stimulated whole blood, ELISA);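 note: values marked with an asterisk were tested at 10 µM and unmarked values at 1 µM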
# Assay type: cell-based
# Conditions: test dose 1×10^−6 M, 48 hours
# Summary of the method: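 Percent inhibition of IL-5, quantified by ELISA in cell-free supernatants, is given at a single dose of 1×10^−6 M (or 1×10^−5 M). Threefold-diluted human whole blood from healthy men received compound for 60 min at 37° C before 48 h PHA stimulation at 2 μg/mL.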
row,Compound,% inh. (percentage inhibition of IL-5 production) [%]
1,CN1CCN(c2ccc(-c3nnc(C(c4ccc(Cl)cc4)c4c(Cl)cc(-n5ncc(=O)[nH]c5=O)cc4Cl)o3)cc2)CC1 (racemic) [Compound 199],43
2,O=c1cnn(-c2cc(Cl)c(C(Sc3nc(-c4ccccc4)no3)c3ccc(Cl)c(C(F)(F)F)c3)c(Cl)c2)c(=O)[nH]1 (racemic) [Compound 404],92
3,O=c1cnn(-c2cc(Cl)c(C(c3ccc(Cl)cc3)c3nc(-c4cccc(F)c4F)cs3)c(Cl)c2)c(=O)[nH]1 (racemic) [Comp 337],96
4,O=c1cnn(-c2ccc(C(c3ccc(Cl)cc3)c3scnc3-c3cccc(F)c3)c(Cl)c2)c(=O)[nH]1 (racemic) [Compound 148],79
5,Cc1sc(C(C)(c2ccc(Cl)c(C(F)(F)F)c2)c2c(Cl)cc(-n3ncc(=O)[nH]c3=O)cc2Cl)nc1-c1ccccc1 (racemic) [Comp 234],83
6,Cc1cc(C(C)(c2nc(-c3ccccc3)cs2)c2ccc(-n3ncc(=O)[nH]c3=O)cc2Cl)ccc1Cl (racemic) [Comp 247],80
7,CCOC(=O)c1csc(C(c2ccc(Cl)cc2)c2c(Cl)cc(-n3ncc(=O)[nH]c3=O)cc2Cl)n1 (racemic) [Comp 27],64
8,O=c1cnn(-c2cc(Cl)c(C(c3ccc(Cl)c(C(F)(F)F)c3)c3nnc(-c4ccccc4)o3)c(Cl)c2)c(=O)[nH]1 (racemic) [Compound 165],80
9,COCCNC(=O)Cc1sc(C(c2ccc(Cl)cc2)c2c(Cl)cc(-n3ncc(=O)[nH]c3=O)cc2Cl)nc1-c1ccccc1 (racemic) [Comp 320],94
10,O=c1cnn(-c2cc(Cl)c(C(c3ccc(Cl)cc3)c3nnc(Cc4ccccc4)o3)c(Cl)c2)c(=O)[nH]1 (racemic) [Compound 173],44
11,Cc1oc(C(c2ccc(Cl)cc2)c2c(Cl)cc(-n3ncc(=O)[nH]c3=O)cc2Cl)nc1-c1ccc(F)cc1 (centres unmarked) [Comp 431],67
12,O=c1cnn(-c2cc(Cl)c(C(Sc3nc4cc(Cl)ccc4s3)c3ccc(Cl)c(C(F)(F)F)c3)c(Cl)c2)c(=O)[nH]1 (racemic) [Compound 402],90
13,O=C(CO)Nc1cccc(-c2nnc(C(c3ccc(Cl)cc3)c3c(Cl)cc(-n4ncc(=O)[nH]c4=O)cc3Cl)o2)c1 (racemic) [Compound 215],54
14,CC(c1ccc(Cl)c(C(F)(F)F)c1)(c1nnc(-c2ccccc2)o1)c1ccc(-n2ncc(=O)[nH]c2=O)cc1Cl (racemic) [Compound 155],80
15,CCOC(=O)c1sc(C(c2ccc(Cl)cc2)c2c(Cl)cc(-n3ncc(=O)[nH]c3=O)cc2Cl)nc1-c1ccccc1Cl (racemic) [Comp 274],89
16,CCc1sc(C(c2ccc(Cl)cc2)c2c(Cl)cc(-n3ncc(=O)[nH]c3=O)cc2Cl)nc1-c1cccc(F)c1 (racemic) [Comp 260],98
17,O=c1cnn(-c2ccc(C(Sc3nnc(C(F)(F)F)[nH]3)c3ccc(Cl)cc3)c(Cl)c2)c(=O)[nH]1 (centres unmarked) [Compound 89],19
18,"O=c1cnn(-c2cc(Cl)c(C(Sc3ncccn3)c3ccc(Cl)cc3)c(Cl)c2)c(=O)[nH]1 (single isomer, unassigned) [Compound 347]",8
19,O=c1cnn(-c2cc(Cl)c(C(c3ccc(Cl)cc3)c3nnc(-c4ccc(Br)cc4)o3)c(Cl)c2)c(=O)[nH]1 (racemic) [Compound 168],80
20,COc1cccc(-c2nnc(C(c3ccc(Cl)cc3)c3c(Cl)cc(-n4ncc(=O)[nH]c4=O)cc3Cl)o2)c1 (racemic) [Compound 170],62

row,Compound,% inh. (percentage inhibition of IL-5 production) [%]
1,O=C(NCc1sc(C(c2ccc(Cl)cc2)c2c(Cl)cc(-n3ncc(=O)[nH]c3=O)cc2Cl)nc1-c1ccccc1)Nc1ccc(Cl)cc1 (racemic) [Comp 333],61
2,CN(C)CCc1sc(C(c2ccc(Cl)cc2)c2c(Cl)cc(-n3ncc(=O)[nH]c3=O)cc2Cl)nc1-c1ccccc1 (racemic) [Comp 279],92
3,Nc1cc(SC(c2ccc(Cl)cc2)c2ccc(-n3ncc(=O)[nH]c3=O)cc2Cl)nc(N)n1 (racemic) [Compound 68],60
4,"O=c1cnn(-c2cc(Cl)c(C(c3ccc(Cl)cc3)c3csc(-c4ccccc4)n3)c(Cl)c2)c(=O)[nH]1 (racemic) [Compound 363, (±)-2-[3,5-dichloro-4-[(4-chlorophenyl)(2-phenyl-4-thiazoyl)methyl]phenyl]-1,2,4-triazine-3,5(2H,4H)-dione]",91
5,Cn1ccnc1C(c1ccc(Cl)cc1)c1c(Cl)cc(-n2ncc(=O)[nH]c2=O)cc1Cl (racemic) [Comp 109],35
6,O=c1cnn(-c2cc(Cl)c(C(c3ccc(Cl)cc3)c3nc(-c4ccccc4)c(CO)s3)c(Cl)c2)c(=O)[nH]1 (racemic) [Comp 282],93
7,O=c1cnn(-c2cc(Cl)c(C(c3ccc(Cl)cc3)c3nnc(C4CCCCC4)o3)c(Cl)c2)c(=O)[nH]1 (racemic) [Compound 159],87
8,Cc1sc(-c2ccccc2)nc1C(c1ccc(Cl)cc1)c1c(Cl)cc(-n2ncc(=O)[nH]c2=O)cc1Cl (racemic) [Compound 365],88
9,Cl.O=c1cnn(-c2ccc(C(NCCc3ccco3)c3ccc(Cl)cc3)c(Cl)c2)c(=O)[nH]1 (racemic) [Compound 43],37
10,O=c1cnn(-c2cc(Cl)c(C(c3ccc(Cl)cc3)c3nc(-c4cccc(Cl)c4)cs3)c(Cl)c2)c(=O)[nH]1 (racemic) [Comp 19],83
11,CN(Cc1sc(C(c2ccc(Cl)cc2)c2c(Cl)cc(-n3ncc(=O)[nH]c3=O)cc2Cl)nc1-c1ccccc1)C1CCCCC1 (racemic) [Comp 334],75
12,COc1cc(-n2ncc(=O)[nH]c2=O)ccc1C(c1ccc(Cl)cc1)c1sc(C)nc1-c1ccccc1 (racemic) [Compound 153],72
13,CCOC(=O)N1CCC(Nc2ccnc(SC(c3ccc(Cl)cc3)c3c(Cl)cc(-n4ncc(=O)[nH]c4=O)cc3Cl)n2)CC1 (racemic) [Compound 351],62
14,O=c1cnn(-c2cc(Cl)c(C(Sc3nc4cccnc4s3)c3ccc(Cl)cc3)c(Cl)c2)c(=O)[nH]1 (centres unmarked) [Compound 376],92
15,O=c1cnn(-c2cc(Cl)c(C(c3ccc(Cl)cc3)c3cccnc3)c(Cl)c2)c(=O)[nH]1 (centres unmarked) [Comp 116],74
16,CCOC(=O)N1CCC(c2nnc(C(c3ccc(Cl)cc3)c3c(Cl)cc(-n4ncc(=O)[nH]c4=O)cc3Cl)o2)CC1 (racemic) [Compound 191],19
17,O=C(O)Cc1sc(C(c2ccc(Cl)cc2)c2c(Cl)cc(-n3ncc(=O)[nH]c3=O)cc2Cl)nc1-c1ccccc1 (racemic) [Comp 300],27
18,"O=c1cnn(-c2cc(Cl)c(C(c3ccc(Cl)cc3)c3nnc(-c4ccccc4)o3)c(Cl)c2)c(=O)[nH]1 (racemic) [Compound 127, (±)-2-[3,5-dichloro-4-[(4-chlorophenyl)(5-phenyl-1,3,4-oxadizol-2-yl)methyl]-phenyl]-1,2,4-triazine-3,5(2H,4H)-dione]",94
19,O=c1cnn(-c2ccc(C(Sc3nc4ccccc4o3)c3ccc(Cl)cc3)c(Cl)c2)c(=O)[nH]1 (racemic) [Compound 71],84

# Same assay, conditions: test dose 1×10^−6 M, 48 hours, read-out: % inh. (percentage inhibition of IL-5 production)
row,Compound,inhibition at 1 µM [%]
1,"CN1CCN(C(c2ccc(Cl)cc2)c2ccc(-n3ncc(=O)[nH]c3=O)cc2Cl)CC1 (racemic) [Compound 118, (±)-2-[3-chloro-4-[(4-chlorophenyl)(4-methyl-1-piperazinyl)methyl]phenyl]-1,2,4-triazine-3,5(2H,4H)-dione]",34
2,"COC(c1ccc(Cl)cc1)(c1nccs1)c1ccc(-n2ncc(=O)[nH]c2=O)cc1Cl (racemic) [Compound 37, (±)-2-[3-chloro-4-[(4-chlorophenyl)-methoxy(2-thiazolyl)methyl]phenyl]-1,2,4-triazine-3,5(2H,4H)-dione]",61
3,"O=c1cnn(-c2cc(Cl)c(C(Sc3nnc(-c4ccccc4)o3)c3ccc(Cl)cc3)c(Cl)c2)c(=O)[nH]1 (racemic) [Compound 406, (±)-2-[3,5-dichloro-4-[(4-chlorophenyl)[(5-phenyl-1,3,4-oxadiazol-2-yl)thio]methyl]phenyl]-1,2,4-triazine-3,5(2H,4H)-dione]",84
4,"O=c1cnn(-c2cc(Cl)c(C(c3ccc(Cl)cc3)c3nccs3)c(Cl)c2)c(=O)[nH]1 (racemic) [Compound 39, (±)-2-[3,5-dichloro-4-[(4-chlorophenyl)-2-thiazolylmethyl]-phenyl]-1,2,4-triazine-3,5(2H,4H)-dione]",68
5,"O=c1cnn(-c2ccc(C(Sc3ncc[nH]3)c3ccc(Cl)cc3)c(Cl)c2)c(=O)[nH]1 (racemic) [Compound 94, (±)-2-[3-chloro-4-[(4-chlorophenyl)(1H-imidazol-2-ylthio)methyl]phenyl]-1,2,4-triazine-3,5(2H,4H)-dione]",18
